In patent publication US20260207578A1, “COMPOUND BASED ON SULFUR/OXYGEN SUBSTITUTED GLUTARIMIDE-BASED ISOINDOLINONE SKELETON AND USE THEREOF” (Gluetacs Therapeutics (Shanghai) Co., LTD., priority 2022, published 2026):
pIC50: −log10 of the molar value.

Key:
[1] = target: T1, human Cereblon WT GST-tagged protein (Homo sapiens, UniProt Q96SW2); test: CRBN-binding affinity, HTRF (CEREBLON BINDING kit); conditions: displacement of Thalidomide-Re reagent, 3 hours at room temperature
T1 construct: purchased CISBIO 64BDCRBNPEH
Outline: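 HTRF competition format: compound, GST-tagged wild-type human Cereblon, Thalidomide-Re tracer and GST Eu antibody were combined in PROTAC binding buffer. Binding was derived from emission at 620 nm relative to blank and solvent control wells.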

IKZF1 = target: T2, IKZF1 (Homo sapiens, UniProt Q13422+Q96SW2); test: Western-blot assay, substrate protein in hPBMCs; assay type: cell-based; conditions: hPBMC cells, 24 hours, tested at 50 nM and 500 nM, table does not say which
T2 construct: endogenous in cells; host or cells: human PBMCs (Milecell Biotechnologies)
Outline: (§1)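 hPBMCs (1×10^6 cells/mL) exposed 24 h to compound at 50 nM and 500 nM, lysed, and probed by Western blot. Band grayscale normalized to internal control gives % protein remaining versus DMSO; DC50 from concentration-response fit at half DMSO band intensity.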

IKZF3 = target: T3, IKZF3 (Homo sapiens, UniProt Q96SW2+Q9UKT9); test: Western-blot assay, substrate protein in hPBMCs; assay type: cell-based; conditions: hPBMC cells, 24 hours, tested at 50 nM and 500 nM, table does not say which
T3 construct: endogenous in cells; host or cells: human PBMCs (Milecell Biotechnologies)
Outline: as §1

Wee1 = target: T4, Wee1 (Homo sapiens, UniProt P30291+Q96SW2); test: Western-blot assay, substrate protein in hPBMCs; assay type: cell-based; conditions: hPBMC cells, 24 hours, tested at 50 nM and 500 nM, table does not say which
T4 construct: endogenous in cells; host or cells: human PBMCs (Milecell Biotechnologies)
Outline: (§2)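 Steps: treat hPBMCs 24 h; lyse on ice in RIPA with phosphatase inhibitors; quantify protein by BCA; denature at 95 °C and blot. Remaining protein (%) is the target/internal-control band ratio, normalised; degradation rate is its complement.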

GSPT1 = target: T5, GSPT1 (Homo sapiens, UniProt P15170+Q96SW2); test: Western-blot assay, substrate protein in hPBMCs; assay type: cell-based; conditions: hPBMC cells, 24 hours, tested at 50 nM and 500 nM, table does not say which
T5 construct: endogenous in cells; host or cells: human PBMCs (Milecell Biotechnologies)
Outline: as §2

CK1α = target: T6, CK1α (Homo sapiens, UniProt P48729+Q96SW2); test: Western-blot assay, substrate protein in hPBMCs; assay type: cell-based; conditions: hPBMC cells, 24 hours, tested at 50 nM and 500 nM, table does not say which
T6 construct: endogenous in cells; host or cells: human PBMCs (Milecell Biotechnologies)
Outline: as §2

IKZF2 = target: T7, IKZF2 (Homo sapiens, UniProt Q96SW2+Q9UKS7); test: Western-blot assay, substrate protein in hPBMCs; assay type: cell-based; conditions: hPBMC cells, 24 hours, tested at 50 nM and 500 nM, table does not say which
T7 construct: endogenous in cells; host or cells: human PBMCs (Milecell Biotechnologies)
Outline: as §2

T1 sequence (Q96SW2 whole entry): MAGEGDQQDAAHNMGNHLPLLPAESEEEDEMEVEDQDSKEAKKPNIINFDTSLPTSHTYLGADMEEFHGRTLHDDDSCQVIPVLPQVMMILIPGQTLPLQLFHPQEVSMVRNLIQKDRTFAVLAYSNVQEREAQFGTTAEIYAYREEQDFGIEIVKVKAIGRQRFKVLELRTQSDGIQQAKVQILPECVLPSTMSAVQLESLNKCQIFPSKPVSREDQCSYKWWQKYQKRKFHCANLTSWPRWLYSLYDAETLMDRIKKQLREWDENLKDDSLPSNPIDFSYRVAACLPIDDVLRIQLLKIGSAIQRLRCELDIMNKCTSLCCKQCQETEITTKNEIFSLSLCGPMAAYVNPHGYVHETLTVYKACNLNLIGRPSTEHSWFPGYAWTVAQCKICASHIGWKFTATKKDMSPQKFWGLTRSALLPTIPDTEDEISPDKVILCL
T5 sequence (P15170 whole entry): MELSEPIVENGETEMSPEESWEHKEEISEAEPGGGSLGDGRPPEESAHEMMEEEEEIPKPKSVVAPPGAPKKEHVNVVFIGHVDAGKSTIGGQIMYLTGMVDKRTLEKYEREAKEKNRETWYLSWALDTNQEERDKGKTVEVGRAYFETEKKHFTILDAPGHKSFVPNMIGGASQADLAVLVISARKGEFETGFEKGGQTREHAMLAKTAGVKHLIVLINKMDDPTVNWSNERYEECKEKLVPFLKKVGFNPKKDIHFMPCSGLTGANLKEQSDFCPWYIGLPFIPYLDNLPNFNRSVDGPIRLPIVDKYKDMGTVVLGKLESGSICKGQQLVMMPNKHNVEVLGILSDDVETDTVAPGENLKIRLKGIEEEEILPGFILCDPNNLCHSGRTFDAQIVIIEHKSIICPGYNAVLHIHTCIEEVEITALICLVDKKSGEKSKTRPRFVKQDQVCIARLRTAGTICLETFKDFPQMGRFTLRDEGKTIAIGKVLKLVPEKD
T5 sequence (Q96SW2 whole entry): as the sequence (Q96SW2 whole entry) above
T5 sequence (Q16531 whole entry partner): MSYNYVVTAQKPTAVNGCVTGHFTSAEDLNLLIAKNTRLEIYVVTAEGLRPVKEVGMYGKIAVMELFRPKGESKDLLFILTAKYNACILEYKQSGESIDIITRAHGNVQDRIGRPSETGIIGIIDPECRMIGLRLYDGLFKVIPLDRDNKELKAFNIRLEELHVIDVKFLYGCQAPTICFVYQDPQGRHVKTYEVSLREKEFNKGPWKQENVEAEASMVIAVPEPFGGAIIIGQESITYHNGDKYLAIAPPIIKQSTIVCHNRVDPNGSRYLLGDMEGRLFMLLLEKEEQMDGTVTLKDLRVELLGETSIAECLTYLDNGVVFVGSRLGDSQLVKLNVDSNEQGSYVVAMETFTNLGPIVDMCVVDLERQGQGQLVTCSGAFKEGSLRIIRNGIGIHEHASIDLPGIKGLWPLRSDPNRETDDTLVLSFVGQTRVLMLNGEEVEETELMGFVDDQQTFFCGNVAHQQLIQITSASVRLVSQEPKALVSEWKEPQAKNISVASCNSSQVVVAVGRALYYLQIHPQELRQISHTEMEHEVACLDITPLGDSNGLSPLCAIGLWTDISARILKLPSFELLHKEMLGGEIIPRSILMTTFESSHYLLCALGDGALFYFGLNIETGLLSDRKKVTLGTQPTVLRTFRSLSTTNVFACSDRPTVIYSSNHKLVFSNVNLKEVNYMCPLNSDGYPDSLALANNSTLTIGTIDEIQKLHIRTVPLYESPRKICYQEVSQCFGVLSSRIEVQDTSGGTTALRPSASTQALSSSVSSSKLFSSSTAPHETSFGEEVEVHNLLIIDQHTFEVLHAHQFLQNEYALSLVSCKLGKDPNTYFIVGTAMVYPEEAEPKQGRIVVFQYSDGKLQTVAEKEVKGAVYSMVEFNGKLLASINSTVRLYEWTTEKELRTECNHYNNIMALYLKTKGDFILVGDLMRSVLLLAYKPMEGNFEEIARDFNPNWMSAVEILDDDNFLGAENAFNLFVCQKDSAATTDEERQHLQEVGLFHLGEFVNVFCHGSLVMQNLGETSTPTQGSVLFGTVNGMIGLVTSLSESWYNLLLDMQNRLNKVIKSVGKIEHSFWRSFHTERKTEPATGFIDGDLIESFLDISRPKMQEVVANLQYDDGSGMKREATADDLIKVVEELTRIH
T4 sequence (P30291 whole entry): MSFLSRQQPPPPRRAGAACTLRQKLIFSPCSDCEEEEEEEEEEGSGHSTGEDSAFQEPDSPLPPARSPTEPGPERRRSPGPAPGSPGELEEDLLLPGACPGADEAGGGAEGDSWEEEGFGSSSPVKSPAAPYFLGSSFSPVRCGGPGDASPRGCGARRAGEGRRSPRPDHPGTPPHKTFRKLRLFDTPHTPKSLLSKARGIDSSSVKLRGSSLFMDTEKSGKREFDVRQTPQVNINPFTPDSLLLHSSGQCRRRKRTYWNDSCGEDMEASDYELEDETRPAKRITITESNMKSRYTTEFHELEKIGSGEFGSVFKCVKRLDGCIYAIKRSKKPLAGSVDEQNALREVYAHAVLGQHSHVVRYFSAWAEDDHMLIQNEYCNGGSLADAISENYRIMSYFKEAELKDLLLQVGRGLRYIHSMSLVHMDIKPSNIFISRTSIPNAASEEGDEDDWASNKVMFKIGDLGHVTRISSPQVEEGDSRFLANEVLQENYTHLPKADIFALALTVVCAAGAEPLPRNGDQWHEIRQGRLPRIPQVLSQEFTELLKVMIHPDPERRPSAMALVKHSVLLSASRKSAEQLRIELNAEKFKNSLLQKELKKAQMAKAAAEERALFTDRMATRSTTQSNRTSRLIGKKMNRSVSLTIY
T4 sequence (Q96SW2 whole entry): as the sequence (Q96SW2 whole entry) above
T4 sequence (Q16531 whole entry partner): as the sequence (Q16531 whole entry partner) above
T7 sequence (Q9UKS7 whole entry): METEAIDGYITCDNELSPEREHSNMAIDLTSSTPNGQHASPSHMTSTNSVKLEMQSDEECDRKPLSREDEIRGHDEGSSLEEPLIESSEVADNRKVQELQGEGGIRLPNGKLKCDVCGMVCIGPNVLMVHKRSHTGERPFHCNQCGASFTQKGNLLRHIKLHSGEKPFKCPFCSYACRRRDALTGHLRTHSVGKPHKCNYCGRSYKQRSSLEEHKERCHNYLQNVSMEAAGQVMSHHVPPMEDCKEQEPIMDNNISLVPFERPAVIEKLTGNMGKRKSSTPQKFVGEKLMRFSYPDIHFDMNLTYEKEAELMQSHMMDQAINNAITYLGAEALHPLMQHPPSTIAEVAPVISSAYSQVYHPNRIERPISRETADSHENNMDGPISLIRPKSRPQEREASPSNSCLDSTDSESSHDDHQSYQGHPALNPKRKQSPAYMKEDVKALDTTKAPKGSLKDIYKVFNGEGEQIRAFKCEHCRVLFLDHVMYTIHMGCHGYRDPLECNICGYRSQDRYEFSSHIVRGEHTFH
T7 sequence (Q96SW2 whole entry): as the sequence (Q96SW2 whole entry) above
T7 sequence (Q16531 whole entry partner): as the sequence (Q16531 whole entry partner) above
T6 sequence (P48729 whole entry): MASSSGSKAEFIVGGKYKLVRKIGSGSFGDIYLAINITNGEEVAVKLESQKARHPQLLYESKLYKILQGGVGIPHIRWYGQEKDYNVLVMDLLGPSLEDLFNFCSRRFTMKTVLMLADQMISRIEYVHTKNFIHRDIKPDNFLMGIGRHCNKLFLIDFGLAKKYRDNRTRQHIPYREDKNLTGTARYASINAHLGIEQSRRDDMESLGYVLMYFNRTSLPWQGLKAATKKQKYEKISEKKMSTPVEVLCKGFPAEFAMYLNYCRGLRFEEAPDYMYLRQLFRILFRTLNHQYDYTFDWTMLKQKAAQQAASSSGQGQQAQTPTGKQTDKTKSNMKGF
T6 sequence (Q96SW2 whole entry): as the sequence (Q96SW2 whole entry) above
T6 sequence (Q16531 whole entry partner): as the sequence (Q16531 whole entry partner) above
T2 sequence (Q13422 whole entry): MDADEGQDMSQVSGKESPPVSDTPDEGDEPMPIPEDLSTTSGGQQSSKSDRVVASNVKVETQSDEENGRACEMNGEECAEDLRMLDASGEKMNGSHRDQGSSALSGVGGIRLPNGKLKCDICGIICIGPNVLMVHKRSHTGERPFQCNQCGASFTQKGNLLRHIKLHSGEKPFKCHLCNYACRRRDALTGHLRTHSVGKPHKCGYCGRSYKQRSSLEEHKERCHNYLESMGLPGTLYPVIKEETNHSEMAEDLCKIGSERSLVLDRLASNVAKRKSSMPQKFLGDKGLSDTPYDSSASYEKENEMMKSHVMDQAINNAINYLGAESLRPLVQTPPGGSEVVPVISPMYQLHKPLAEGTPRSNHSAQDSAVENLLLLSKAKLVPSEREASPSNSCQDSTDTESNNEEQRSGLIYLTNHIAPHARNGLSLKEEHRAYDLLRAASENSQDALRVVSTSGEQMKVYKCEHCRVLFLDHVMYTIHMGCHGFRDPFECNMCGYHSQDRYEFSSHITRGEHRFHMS
T2 sequence (Q96SW2 whole entry): as the sequence (Q96SW2 whole entry) above
T2 sequence (Q16531 whole entry partner): as the sequence (Q16531 whole entry partner) above

Compound | pIC50 [1] | substrate protein remaining % (IKZF1) | substrate protein remaining % (IKZF3) | substrate protein remaining % (Wee1) | substrate protein remaining % (GSPT1) | substrate protein remaining % (CK1α) | substrate protein remaining % (IKZF2)
CC1(C)CCC(CN2CC(Sc3cccc4c3CN(C3CCC(=O)NC3=O)C4=O)C2)=C(c2ccc(Cl)cc2)C1 (stereo not drawn) [GT-06515, 3-(4-((1-((4′-chloro-5,5-dimethyl-3,4,5,6-tetrahydro-[1,1′-biphenyl]-2-yl)methyl)azetidin-3-yl)thio)-1-oxoisoindolin-2-yl)piperidine-2,6-dione] | 6.00 to 6.30 | A (0%≤ substrate protein remaining % ≤80%) | A (0%≤ substrate protein remaining % ≤80%) | A (0%≤ substrate protein remaining % ≤80%) | A (0%≤ substrate protein remaining % ≤80%) | A (0%≤ substrate protein remaining % ≤80%) | –
CC1(C)CCC(CN2CC(Oc3ccc4c(c3)CN(C3CCC(=O)NC3=O)C4=O)C2)=C(c2ccc(Cl)cc2)C1 (stereo not drawn) [GT-03369, 3-(5-((1-((4′-chloro-5,5-dimethyl-3,4,5,6-tetrahydro-[1,1′-biphenyl]-2-yl)methyl)azetidin-3-yl)oxy)-1-oxoisoindolin-2-yl)piperidine-2,6-dione] | 6.00 to 6.30 | A (0%≤ substrate protein remaining % ≤80%) | A (0%≤ substrate protein remaining % ≤80%) | A (0%≤ substrate protein remaining % ≤80%) | A (0%≤ substrate protein remaining % ≤80%) | – | –
O=C1CCC(N2Cc3cc(OC4CCN(Cc5ccccc5-c5ccc(Cl)cc5)C4)ccc3C2=O)C(=O)N1 (stereo not drawn) [GT-06817, 3-(5-((1-((4′-chloro-[1,1′-biphenyl]-2-yl)methyl)pyrrolidin-3-yl)oxy)-1-oxoisoindolin-2-yl)piperidine-2,6-dione] | 6.00 to 6.30 | – | A (0%≤ substrate protein remaining % ≤80%) | A (0%≤ substrate protein remaining % ≤80%) | A (0%≤ substrate protein remaining % ≤80%) | A (0%≤ substrate protein remaining % ≤80%) | A (0%≤ substrate protein remaining % ≤80%)
CC1(C)CCC(CN2CCC3(CC2)CC(Oc2ccc4c(c2)CN(C2CCC(=O)NC2=O)C4=O)C3)=C(c2ccc(Cl)cc2)C1 (stereo not drawn) [GT-06933, 3-(5-((7-((4′-chloro-5,5-dimethyl-3,4,5,6-tetrahydro-[1,1′-biphenyl]-2-yl)methyl)-7-azaspiro[3.5]nonan-2-yl)oxy)-1-oxoisoindolin-2-yl)piperidine-2,6-dione] | 5.72 to 6.00 | A (0%≤ substrate protein remaining % ≤80%) | A (0%≤ substrate protein remaining % ≤80%) | A (0%≤ substrate protein remaining % ≤80%) | – | – | A (0%≤ substrate protein remaining % ≤80%)
O=C1CCC(N2Cc3cc(OC4CN(Cc5cnc(-c6ccccc6)cn5)C4)ccc3C2=O)C(=O)N1 (stereo not drawn) [GT-06353, 3-(1-oxo-5-((1-((5-phenylpyrazin-2-yl)methyl)azetidin-3-yl)oxy)isoindolin-2-yl)piperidine-2,6-dione] | 6.00 to 6.30 | A (0%≤ substrate protein remaining % ≤80%) | A (0%≤ substrate protein remaining % ≤80%) | A (0%≤ substrate protein remaining % ≤80%) | A (0%≤ substrate protein remaining % ≤80%) | A (0%≤ substrate protein remaining % ≤80%) | –
CC1(C)CCC(CN2CC(Oc3cccc4c3CN(C3CCC(=O)NC3=O)C4=O)C2)=C(c2ccc(Cl)cc2)C1 (stereo not drawn) [GT-06952, 3-(4-((1-((4′-chloro-5,5-dimethyl-3,4,5,6-tetrahydro-[1,1′-biphenyl]-2-yl)methyl)azetidin-3-yl)oxy)-1-oxoisoindolin-2-yl)piperidine-2,6-dione] | 6.00 to 6.30 | A (0%≤ substrate protein remaining % ≤80%) | A (0%≤ substrate protein remaining % ≤80%) | – | A (0%≤ substrate protein remaining % ≤80%) | A (0%≤ substrate protein remaining % ≤80%) | –
CC1(C)CCC(CN2CC(Oc3ccc4c(c3)C(=O)N(C3CCC(=O)NC3=O)C4)C2)=C(c2ccc(Cl)cc2)C1 (stereo not drawn) [GT-06872, 3-(6-((1-((4′-chloro-5,5-dimethyl-3,4,5,6-tetrahydro-[1,1′-biphenyl]-2-yl)methyl)azetidin-3-yl)oxy)-1-oxoisoindolin-2-yl)piperidine-2,6-dione] | 5.72 to 6.00 | – | A (0%≤ substrate protein remaining % ≤80%) | A (0%≤ substrate protein remaining % ≤80%) | A (0%≤ substrate protein remaining % ≤80%) | A (0%≤ substrate protein remaining % ≤80%) | A (0%≤ substrate protein remaining % ≤80%)
O=C1CCC(N2Cc3cc(OC4CCN(C(c5ccccc5)c5ccccc5)C4)ccc3C2=O)C(=O)N1 (stereo not drawn) [GT-06819, 3-(5-((1-benzhydrylpyrrolidin-3-yl)oxy)-1-oxoisoindolin-2-yl)piperidine-2,6-dione] | > 6.30 | – | A (0%≤ substrate protein remaining % ≤80%) | A (0%≤ substrate protein remaining % ≤80%) | A (0%≤ substrate protein remaining % ≤80%) | A (0%≤ substrate protein remaining % ≤80%) | A (0%≤ substrate protein remaining % ≤80%)

Second part, led by results:

pIC50 [1] | Compound | substrate protein remaining % (IKZF1) | substrate protein remaining % (IKZF3) | substrate protein remaining % (Wee1) | substrate protein remaining % (GSPT1) | substrate protein remaining % (CK1α) | substrate protein remaining % (IKZF2)
> 6.30 | O=C1CCC(N2Cc3cc(SC4CC5CN(C(c6ccccc6)c6ccccc6)CC5C4)ccc3C2=O)C(=O)N1 (stereo not drawn) [GT-06922, 3-(5-((2-benzhydryloctahydro-cyclopenta[c]pyrrol-5-yl)thio)-1-oxoisoindolin-2-yl)piperidine-2,6-dione] | A (0%≤ substrate protein remaining % ≤80%) | A (0%≤ substrate protein remaining % ≤80%) | A (0%≤ substrate protein remaining % ≤80%) | A (0%≤ substrate protein remaining % ≤80%) | A (0%≤ substrate protein remaining % ≤80%) | –
> 6.30 | O=C1CCC(N2Cc3cc(OC4CN(CC5=C(c6ccc(Cl)cc6)CCOC5)C4)ccc3C2=O)C(=O)N1 (stereo not drawn) [GT-06354, 3-(5-((1-((4-(4-chlorophenyl)-5,6-dihydro-2H-pyran-3-yl)methyl)azetidin-3-yl)oxy)-1-oxoisoindolin-2-yl)piperidine-2,6-dione] | A (0%≤ substrate protein remaining % ≤80%) | A (0%≤ substrate protein remaining % ≤80%) | A (0%≤ substrate protein remaining % ≤80%) | A (0%≤ substrate protein remaining % ≤80%) | A (0%≤ substrate protein remaining % ≤80%) | –
> 6.30 | O=C1CCC(N2Cc3cc(OC4CN(C(c5ccccn5)c5ccccn5)C4)ccc3C2=O)C(=O)N1 (stereo not drawn) [GT-06814, 3-(5-((1-(di(pyridin-2-yl)methyl)azetidin-3-yl)oxy)-1-oxoisoindolin-2-yl)piperidine-2,6-dione] | – | A (0%≤ substrate protein remaining % ≤80%) | A (0%≤ substrate protein remaining % ≤80%) | A (0%≤ substrate protein remaining % ≤80%) | A (0%≤ substrate protein remaining % ≤80%) | A (0%≤ substrate protein remaining % ≤80%)
> 6.30 | O=C1CCC(N2Cc3cc(OC4CCN(C(c5ccccc5)c5ccccc5)CC4)ccc3C2=O)C(=O)N1 (stereo not drawn) [GT-06195, 3-(5-((1-benzhydrylpiperidin-4-yl)oxy)-1-oxoisoindolin-2-yl)piperidine-2,6-dione] | A (0%≤ substrate protein remaining % ≤80%) | A (0%≤ substrate protein remaining % ≤80%) | A (0%≤ substrate protein remaining % ≤80%) | A (0%≤ substrate protein remaining % ≤80%) | A (0%≤ substrate protein remaining % ≤80%) | –
